# Measured values taken from patent publication US20030232765A1, “Aryl urea compounds in combination with other cytostatic or cytotoxic agents for treating human cancers” (BAYER CORPORATION, priority 2001, published 2003).
# Counter-ions that a name gives are not always drawn. Like-named read-outs stand apart in the source and are kept apart here.
# What was measured:
# [1] = tested on: MiaPaCa-2 human pancreatic tumor xenografts; experiment: Tumor xenograft experiment, established s.c. MiaPaCa-2 tumors, anti-tumor efficacy (Example 2); assay type: in vivo; conditions: Gemzar 120 mg/kg/dose i.p. q4d×3
# Text: (§1) Mice received food and water ad libitum.
# (§2) These schedules are termed ‘Concurrent Therapy’.
# [2] = Tolerability (body weight, mortality) in MiaPaCa-2 tumor-bearing mice (Example 2); assay type: in vivo; conditions: Gemzar 120 mg/kg/dose i.p. q4d×3; Compound A p.o. qd×9 (40 mg/kg/dose, 80 mg/kg dose level); alone or concurrent
# Text: as §1, §2
# [3] = tested on: NCI-H460 human non-small cell lung tumor xenografts; experiment: Tumor xenograft experiment, established s.c. NCI-H460 tumors, anti-tumor efficacy (Example 3); assay type: in vivo; conditions: Ncr nu/nu mice; Navelbine 6.7 mg/kg/dose i.v. q4d×3; Compound A 40 mg/kg/dose p.o. qd×9; alone or combined; endpoint time to three mass doublings
# Text: (§3) Ncr nu/nu female mice (Taconic Farms, Germantown, N.Y.) were used for all in vivo studies invovling the DLD-1 and NCI-H460 tumor models. Female CB-17 SCID nice (Taconic Farms, Germantown, N.Y.) were used for studies involving the Mia-PaCa-2 tumor model. The mice were housed and maintained within the Comparative Medicine Department at Bayer Corporation, West Haven, Conn. in accordance with Bayer IACUC, State, and Federal guidelines for the humane treatment and care of laboratory animals. Mice received food and water ad libitum.
# (§4) The NCI-H460 cells were maintained and passaged in vitro using DMEM (GIBCO cat. # 11995-065: 500 mls) supplemented with 10% heat inactivated fetal bovine serum (JRH Biosciences cat.# 12106-500M), 2 mM L-glutamine (GIBCO cat. # 25030-81), 10 mM HEPES buffer (GIBCO cat # 15630-080) and penicillin-streptomycin (GIBCO cat. # 15140-122: 5 mls/[…]). The A549 cells were maintained and passaged using RPMI 1640 media (GIBCO cat.# 11875-085: 1000 ml) supplemented with 10% heat-inactivated fetal bovine serum (JRH Biosciences cat.# 12106-500M). All cells were maintained at 37° C. and 5% CO2 in a Fisher Scientific 610 CO2 incubator.
# as §2
# in vivo = conditions: female, Ncr nu/nu, mouse, iv, 6.7 mg/kg/dose
# Text: as §3, §2
# [4] = tested on: DLD-1 human colon tumor xenografts; experiment: Tumor xenograft experiment, established s.c. DLD-1 tumors, anti-tumor efficacy (Example 1); assay type: in vivo; conditions: Camptosar 40 mg/kg/dose i.p. q4d×3, Compound A 80 mg/kg/dose p.o. qd×9
# Text: as §1, §2
# [5] = Camptosar 40 mg/kg/dose i.p. q4d×3, Compound A 80 mg/kg/dose p.o. qd×9
# Text: as §3, §2
# In the first study, Camptosar® was administered i.p at 40 mg/kg/dose.
# [6] = tested on: A549 human non-small cell lung tumor xenografts; experiment: Tumor xenograft experiment, established A549 tumors, anti-tumor efficacy (Example 5); assay type: in vivo; conditions: Iressa 150 mg/kg/dose p.o. qd×9, Compound A 80 mg/kg/dose p.o. qd×9; for percent tumor growth suppression (% TGS): alone or combined, endpoint time to one mass doubling
# Description: as §4, §2
# [7] = Iressa 150 mg/kg/dose p.o. qd×9; Compound A 80 mg/kg/dose p.o. qd×9; alone or combined; 10 mice per group
# Text: as §2
# [8] = tested on: MX-1 mammary tumor xenografts; experiment: Tumor xenograft experiment, established MX-1 tumors, anti-tumor efficacy (Example 4); conditions: DOX 4 mg/kg/dose i.v. q4d×3; Compound A 40 mg/kg/dose p.o. qd×9; alone or combined; endpoint time to four mass doublings
# Description: The DLD-1 human colon carcinoma and the MiaPaCa-2 human pancreatic carcinoma were obtained from the American Type Tissue Culture Collection Repository. The MX-1 human mammary tumor was obtained from the NCI tumor repository. Tumors were maintained as a serial in vivo passage of s.c. fragments (3×3 mm) implanted in the flank using a 12 gauge trocar. A new generation of the passage was initiated every three or four weeks.
# Female mice were implanted s.c. with DLD-1, MX-1 or Mia-PaCa-2 tumor fragments from an in vivo passage. […] The general health of mice was monitored and mortality was recorded daily. Tumor dimensions and body weights were recorded twice a week starting with the first day of treatment. […]
# Tumor weights were calculated using the equation (l×w^2)/2, where l and w refer to the larger and smaller dimensions collected at each measurement. […] Anti-tumor efficacy was measured as the incidence of complete regressions (CR) defined as tumors that are reduced to below the limit of measurement (3 mm) in both length and width, partial regressions (PR) defined as tumors that are reduced by more than 50% but less than 100% of their initial size, and percent tumor growth suppression (% TGS). […]
Compound,lethality [2],lethality ([5]; alone or concurrent),incidence of partial regressions (PR) ([6]; 10 mice per group),percent tumor growth suppression (% TGS) [6] [%],lethality [7],percent tumor growth suppression (% TGS) [8] [%],other results
"Nc1ccn([C@@H]2O[C@H](CO)[C@@H](O)C2(F)F)c(=O)n1 [Gemzar, Gemcitabine HCI]",no lethality,–,–,–,–,–,"percent tumor growth suppression (% TGS) ([1]; CB-17 SCID mice, Compound A 40 mg/kg/dose p.o. qd×9, alone or concurrent, endpoint time to two mass doublings): 154%; incidence of complete regressions (CR) ([1]; 10 mice per group): no complete or partial tumor regressions; incidence of partial regressions (PR) ([1]; Compound A 40 mg/kg/dose p.o. qd×9, 10 mice per group): no complete or partial tumor regressions"
"CCC1=C[C@@H]2CN(C1)Cc1c([nH]c3ccccc13)[C@@](C(=O)OC)(c1cc3c(cc1OC)N(C)[C@H]1[C@@](O)(C(=O)OC)[C@H](OC(C)=O)[C@]4(CC)C=CCN5CC[C@]31[C@@H]54)C2 [Navelbine, 3′,4′-didehydro-4′deoxy-C-norvincaleukoblastine [R—(R,R)-2,3-dihydroxybutanedioate (1:2)(salt)]]",–,–,–,–,–,–,percent tumor growth suppression (% TGS) [3]: 32%; MTD at 9 days (in vivo): ~6.7 mg/kg
"CCc1c2c(nc3ccc(OC(=O)N4CCC(N5CCCCC5)CC4)cc13)-c1cc3c(c(=O)n1C2)COC(=O)[C@]3(O)CC [Camptosar, Irinotecan]",–,no lethality,–,–,–,–,"incidence of complete regressions (CR) ([4]; 10 mice per group): no complete or partial tumor regressions; incidence of partial regressions (PR) ([4]; 10 mice per group): no complete or partial tumor regressions; percent tumor growth suppression (% TGS) ([4]; Ncr nu/nu mice, alone or concurrent, endpoint time to three mass doublings): 71%; weight loss ([5]; alone or concurrent): minimal weight loss; tolerability ([5]; single agents): well tolerated"
"CNC(=O)c1cc(Oc2ccc(NC(=O)Nc3ccc(Cl)c(C(F)(F)F)c3)cc2)ccn1 [Compound A, N-(4-chloro-3-(trifluoromethyl)phenyl)-N′-(4-(2-(N-methylcarbamoyl)-4-pyridyloxy)phenyl)urea]",no lethality,no lethality,2,218,no weight loss or lethality,46,incidence of complete regressions (CR) ([6]; 10 mice per group): 1
"COc1cccc2c1C(=O)c1c(O)c3c(c(O)c1C2=O)C[C@@](O)(C(=O)CO)C[C@@H]3O[C@H]1C[C@H](N)[C@H](O)[C@H](C)O1 [DOX, Doxorubicin HCl]",–,–,–,–,–,43,–
"COc1cc2ncnc(Nc3ccc(F)c(Cl)c3)c2cc1OCCCN1CCOCC1 [Iressa, 4-(3-chloro-4-fluoroanilino)7-methoxy-6-(3-morpholinopropoxy)quinazoline]",–,–,1,101,no lethality,–,–
